According to ChEMBL document CHEMBL1201862, “PubChem BioAssay data set” (2004):
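Each compound was tested at five concentrations against cells in 96-well plates for 48 hours. GI50 = concentration required for 50% inhibition of growth.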 Activity calls are given as the source filed them. Rule as the data show it: active = GI50 up to about 1.1 µM and inactive = higher.

Experiments:
Experiment in all cases: inhibition of tumour cell growth, NCI panel, 48 h
[1] = system: ACHN
[2] = system: HCT-15
[3] = system: HL-60
[4] = system: HOP-62
[5] = system: HOP-92
[6] = system: IGROV-1
[7] = system: KM12
[8] = system: MOLT-4
[9] = system: OVCAR-3
[10] = system: OVCAR-5
[11] = system: PC-3
[12] = system: SNB-19
[13] = system: SW-620
[14] = system: TK-10
[15] = system: UACC-62
[16] = system: COLO 205
[17] = system: NCI-H226

SMILES	GI50 [1]	GI50 [2]	GI50 [3]	GI50 [4]	GI50 [5]	GI50 [6]	GI50 [7]	GI50 [8]	GI50 [9]	GI50 [10]	GI50 [11]	GI50 [12]	GI50 [13]	GI50 [14]	GI50 [15]	GI50 [16]	GI50 [17]
COc1ccc(C)cc1N1C(=O)C2ON(Cc3ccc(CC(N)=O)cc3)C(c3c4ccccc4c(Cl)c4ccccc34)C2C1=O (stereo unspecified)	25.4 µM (inactive)	22.4 µM	27.6 µM (inactive)	27.7 µM (inactive)	32.6 µM (inactive)	33.2 µM (inactive)	14 µM (inactive)	24.9 µM (inactive)	28.4 µM (inactive)	23.6 µM (inactive)	28.1 µM (inactive)	32.1 µM (inactive)	28.4 µM (inactive)	23.1 µM (inactive)	19.7 µM (inactive)	–	–
O=C(/C=C/c1ccc(O)c(O)c1)OCCOC(=O)/C=C/c1ccc(O)c(O)c1	31.3 µM (inactive)	35.1 µM	–	21.5 µM (inactive)	42.2 µM (inactive)	35 µM (inactive)	17.6 µM (inactive)	20.9 µM (inactive)	19.3 µM (inactive)	14.2 µM (inactive)	32 µM (inactive)	40.3 µM (inactive)	38.1 µM (inactive)	41.5 µM (inactive)	18.7 µM (inactive)	19.5 µM (inactive)	30.1 µM (inactive)
CC(C)[C@H]1NC(=O)[C@H]2N=C(S[C@H]2C)[C@@H]2CCCN2C(=O)[C@H](Cc2ccccc2)NC(=O)[C@@H]2CSC(=N2)[C@@H](Cc2ccccc2)NC(=O)[C@@H]2CSC1=N2	25.4 µM (inactive)	25.3 µM	0.0912 µM (active)	> 50 µM (inactive)	–	29 µM (inactive)	12.3 µM (inactive)	11.6 µM (inactive)	20 µM (inactive)	> 50 µM (inactive)	14.6 µM (inactive)	24.2 µM (inactive)	18.1 µM (inactive)	21.7 µM (inactive)	29.6 µM (inactive)	16.1 µM (inactive)	21 µM (inactive)
CCOC(=O)c1c(N2CCCC2)[nH]c(=O)c(C(c2c(O)c(C(=O)OCC)c(N3CCCC3)[nH]c2=O)C(C)C)c1O	> 100 µM (inactive)	> 100 µM	–	94.4 µM (inactive)	28.7 µM (inactive)	–	> 100 µM (inactive)	> 100 µM (inactive)	> 100 µM (inactive)	33.2 µM (inactive)	33.6 µM (inactive)	70.6 µM (inactive)	> 100 µM (inactive)	42.4 µM (inactive)	> 100 µM (inactive)	> 100 µM (inactive)	> 100 µM (inactive)
COC(=O)C1=C(C(=O)OC)C2(/N=C(\Nc3ccccc3)c3ccccc3)N(c3ccc(OC)cc3)CC(c3ccccc3)N2O1 (stereo unspecified)	> 100 µM (inactive)	> 100 µM	> 100 µM (inactive)	> 100 µM (inactive)	53.6 µM (inactive)	> 100 µM (inactive)	> 100 µM (inactive)	> 100 µM (inactive)	> 100 µM (inactive)	> 100 µM (inactive)	> 100 µM (inactive)	> 100 µM (inactive)	> 100 µM (inactive)	> 100 µM (inactive)	> 100 µM (inactive)	> 100 µM (inactive)	–
N#CCCN(CCC#N)c1ccc(C(=N/c2ccc(Cl)cc2)/N=N/c2ccccc2)cc1	> 100 µM (inactive)	27.4 µM	–	> 100 µM (inactive)	> 100 µM (inactive)	55.7 µM (inactive)	58.5 µM (inactive)	> 100 µM (inactive)	66.7 µM (inactive)	> 100 µM (inactive)	> 100 µM (inactive)	> 100 µM (inactive)	> 100 µM (inactive)	88.5 µM (inactive)	34.3 µM (inactive)	48.8 µM (inactive)	> 100 µM (inactive)
COc1cc(OC)c(OC)cc1/C=C/c1cc[n+](C)c2ccccc12	> 100 µM (inactive)	> 100 µM	14 µM (inactive)	4.89 µM (inactive)	23.9 µM (inactive)	40 µM (inactive)	19.8 µM (inactive)	21.2 µM (inactive)	–	> 100 µM (inactive)	20.7 µM (inactive)	8.45 µM (inactive)	36.2 µM (inactive)	> 100 µM (inactive)	–	5.96 µM (inactive)	–
O=S(=O)(c1ccccc1)n1c2ccc(Br)cc2c2nc3ccccc3nc21	> 100 µM (inactive)	> 100 µM	–	> 100 µM (inactive)	> 100 µM (inactive)	> 100 µM (inactive)	> 100 µM (inactive)	> 100 µM (inactive)	> 100 µM (inactive)	> 100 µM (inactive)	> 100 µM (inactive)	> 100 µM (inactive)	> 100 µM (inactive)	> 100 µM (inactive)	> 100 µM (inactive)	> 100 µM (inactive)	47.9 µM (inactive)
CC1(C)CC(=O)c2[nH]c3ccccc3c2CC(=O)NCCc2cn1cn2	61.1 µM (inactive)	> 100 µM	–	–	36.5 µM (inactive)	> 100 µM (inactive)	> 100 µM (inactive)	> 100 µM (inactive)	> 100 µM (inactive)	> 100 µM (inactive)	> 100 µM (inactive)	28 µM (inactive)	> 100 µM (inactive)	> 100 µM (inactive)	> 100 µM (inactive)	> 100 µM (inactive)	> 100 µM (inactive)
CCN(CC)CC[n+]1ccc2c(C)c3[nH]c4ccccc4c3c(C)c2c1	5 µM (inactive)	22 µM	0.168 µM (active)	1.22 µM (inactive)	–	–	0.338 µM (active)	0.106 µM (active)	0.236 µM (active)	1.61 µM (inactive)	0.553 µM (active)	0.144 µM (active)	0.51 µM (active)	4.41 µM (inactive)	–	–	–
CC(C)(C)c1ccc(O)c(CN(Cc2c(O)ccc3ccccc23)C2CCCCC2)c1	18.5 µM (inactive)	16.4 µM	–	17.6 µM (inactive)	16.4 µM (inactive)	15.7 µM (inactive)	17.6 µM (inactive)	18.6 µM (inactive)	17.4 µM (inactive)	16.9 µM (inactive)	14.5 µM (inactive)	18.5 µM (inactive)	24.4 µM (inactive)	15.8 µM (inactive)	15.6 µM (inactive)	15.7 µM (inactive)	–
COc1ccc(-n2nnc(C(N)=O)c2O)cc1	> 100 µM (inactive)	> 100 µM	> 100 µM (inactive)	> 100 µM (inactive)	–	> 100 µM (inactive)	> 100 µM (inactive)	> 100 µM (inactive)	0.0187 µM (active)	> 100 µM (inactive)	> 100 µM (inactive)	> 100 µM (inactive)	> 100 µM (inactive)	–	> 100 µM (inactive)	> 100 µM (inactive)	> 100 µM (inactive)
CCOC(=O)C(NC(=O)OC(C)(C)C)C(=O)OCC	> 100 µM (inactive)	> 100 µM	–	> 100 µM (inactive)	> 100 µM (inactive)	> 100 µM (inactive)	> 100 µM (inactive)	> 100 µM (inactive)	–	> 100 µM (inactive)	> 100 µM (inactive)	> 100 µM (inactive)	> 100 µM (inactive)	> 100 µM (inactive)	> 100 µM (inactive)	> 100 µM (inactive)	–
O=C1N[C@H]2c3c(Cl)sc(Cl)c3/C(=N/O)[C@H]2O1	> 100 µM (inactive)	67.9 µM	18.7 µM (inactive)	> 100 µM (inactive)	–	72.3 µM (inactive)	> 100 µM (inactive)	> 100 µM (inactive)	> 100 µM (inactive)	> 100 µM (inactive)	> 100 µM (inactive)	> 100 µM (inactive)	> 100 µM (inactive)	> 100 µM (inactive)	> 100 µM (inactive)	> 100 µM (inactive)	–
COc1ccc(C2c3cc4c(cc3OC(N3CCOCC3)C2C)OCO4)c(OC)c1OC (stereo unspecified)	16.1 µM (inactive)	6.93 µM	–	26.9 µM (inactive)	–	15.1 µM (inactive)	5.55 µM (inactive)	10.6 µM (inactive)	11 µM (inactive)	17.1 µM (inactive)	13.6 µM (inactive)	10.7 µM (inactive)	11.1 µM (inactive)	15.5 µM (inactive)	13.5 µM (inactive)	14.6 µM (inactive)	–
Cc1nc(Nc2ccc(Cl)c(Cl)c2)sc1C(=O)/C=C/c1ccc2c(c1)OCO2	16.8 µM (inactive)	–	18.9 µM (inactive)	17.9 µM (inactive)	–	38.6 µM (inactive)	20.9 µM (inactive)	14.9 µM (inactive)	10.4 µM (inactive)	88.7 µM (inactive)	–	21.5 µM (inactive)	40.5 µM (inactive)	24.5 µM (inactive)	37.6 µM (inactive)	24.7 µM (inactive)	25.9 µM (inactive)
CC1(C)C[C@H](O)[C@H](O)[C@]23C(=O)O[C@H](O)[C@H]2C(C=O)=CC[C@@H]13	> 100 µM (inactive)	> 100 µM	> 100 µM (inactive)	> 100 µM (inactive)	–	> 100 µM (inactive)	> 100 µM (inactive)	> 100 µM (inactive)	> 100 µM (inactive)	–	> 100 µM (inactive)	> 100 µM (inactive)	> 100 µM (inactive)	> 100 µM (inactive)	58.9 µM (inactive)	> 100 µM (inactive)	> 100 µM (inactive)
CN(CCN(C)C(=S)NN)C(=S)NN	> 100 µM (inactive)	–	> 100 µM (inactive)	> 100 µM (inactive)	–	> 100 µM (inactive)	> 100 µM (inactive)	> 100 µM (inactive)	> 100 µM (inactive)	> 100 µM (inactive)	> 100 µM (inactive)	> 100 µM (inactive)	> 100 µM (inactive)	–	> 100 µM (inactive)	> 100 µM (inactive)	–
